Test system: Plasmodium falciparum
Assay: GSK_TCMDC: Inhibition of Plasmodium falciparum 3D7 in whole erythrocytes, using parasite LDH activity as an index of growth.
Type: functional, organism-based
Details: Plasmodium falciparum, 3D7

Compound | XC50
CCCc1ccc(S(=O)(=O)NC2CCN(C(=O)Nc3ccc(I)cc3)CC2)cc1 | 0.872 µM
CC1(C)C2C=C(CN3CCC(NC(=O)Nc4ccc(Cl)c(Cl)c4)CC3)C1CC2 (stereo unspecified) | 0.761 µM
Nc1ncc(-c2cn[nH]c2)cc1-c1nc2ccc(F)cc2[nH]1 | 0.729 µM
O=C(/C=C/c1ccc(Cl)c(Cl)c1)N1CCC(CNCc2cccc3cc[nH]c23)CC1 | 1.22 µM
Nc1ccc(-c2nc3cc(C4=N[C@H]5CCCC[C@H]5N4)ccc3o2)cc1[N+](=O)[O-] | 1.12 µM
Cc1cc(-c2ccc3c(c2)CC[C@@H](N[C@@H](C)c2ccccc2)C3)cnc1N | 1.73 µM
COc1cc(C(=O)NCCCN2CCN(c3cccc(Cl)c3)CC2)ccc1-c1nc2cc(Cl)c(F)cc2[nH]1 | 1.02 µM
Cc1ccc2[nH]c(C)cc(=NN=CC=Cc3ccccc3)c2c1 | 0.84 µM
CN(C)CCNC(=O)NC1CN(c2ncnc3cc(-c4ccccc4)sc23)C1 | 0.585 µM
O=C(Nc1ccc(Cn2nc(Cl)c(N3CCNCC3)cc2=O)cc1)Nc1ccc(-c2ccccc2)cc1 | 0.753 µM
Cc1nc(C)c(-c2ccc(C(=O)c3ccccc3)cc2)c(O)c1Br | 0.778 µM
O=c1c(NCCCN(Cc2ccc(F)cc2)c2ccccn2)c(NCc2cccnc2)c1=O | 0.0617 µM
CCc1c(C)c2ccc3c(c2oc1=O)CN(CCc1ccc(F)cc1)CO3 | 1.23 µM
O=C(NCCN1CCC(NC(=O)c2ccc(-c3ccccn3)s2)CC1)c1cccc(C(F)(F)F)c1 | 0.861 µM
COc1ccc(NC(=O)NCC2CCCN(CCCCCNC(=O)/C=C/c3ccc(Cl)c(Cl)c3)C2)c(OC)c1 (stereo unspecified) | 0.859 µM
CC(C)CNCc1cccc(-c2ccc(CN(C(=O)c3cccs3)C3CCN(Cc4ccccc4)CC3)cc2)c1 | 1.01 µM
Cc1ccc(CN(Cc2ccc(C(=O)N(C)C)cc2)Cc2ccc3c(c2)OCCO3)cc1C | 0.804 µM
COc1ccc(CNCc2ccc(-c3ccc(-c4nc5cc(C(F)(F)F)ccc5[nH]4)cc3)cc2)cc1 | 0.135 µM
CN(C)S(=O)(=O)n1ncc2c3c(N)nc(N)nc3ccc21 | 0.178 µM
Cc1ccc2nc(C)cc(N/N=C/c3ccc([N+](=O)[O-])cc3)c2c1 | 0.793 µM
Cc1[nH]c(C)c(-c2ccc(Oc3ccc(F)cc3)cc2)c(=O)c1Cl | 0.0505 µM
CCN(CC)CCN(Cc1ccc(-c2ccc(C(F)(F)F)cc2)cc1)C(=O)c1ccc(-c2ccc(C#N)cc2)cc1 | 1.11 µM
O=c1cc(NCCCNCc2cc3ccc(Br)cc3s2)[nH]c2ccccc12 | 0.99 µM
CC[C@H]1CN2CC[C@@H]1C[C@H]2[C@H](O)c1cc[n+]([O-])c2ccc(OC)cc12 | 0.748 µM

Compound | XC50
CCOc1ccc(N(CC)S(=O)(=O)c2cc(Br)cc3c2N(C(=O)C2CC2)CC3)cc1 | 0.134 µM
Cn1cnc2c(SCc3ccc(OCc4ccccc4)cc3)ncnc21 | 0.557 µM
CCNS(=O)(=O)c1ccc(Oc2ccc([N+](=O)[O-])cc2)cc1 | 0.169 µM
COc1ccc2c(=NN=Cc3cccc(C)n3)cc(-c3ccccc3)[nH]c2c1 | 0.751 µM
CC[C@H]1CN(C/C=C/c2ccc(OC)cc2)CC[C@H]1CCCc1ccnc2ccc(O)cc12 | 0.657 µM
O=C(/C=C/c1ccc(Cl)c(Cl)c1)NC1CCN(CCCNC(=O)c2cccc(Cl)c2)CC1 | 0.659 µM
O=C(Nc1cccc(C(F)(F)F)c1)c1ccc(S(=O)(=O)NCC2CCCN(CC3CCCCC3)C2)cc1 (stereo unspecified) | 0.899 µM
CN1CCC(NCc2cccc(-c3ccc(S(=O)(=O)NCCc4ccccn4)c(F)c3)c2)CC1 | 0.918 µM
Cc1ccc2[nH]c(C)cc(=NN=Cc3ccccc3F)c2c1 | 0.171 µM
COc1c(C2CCN(CCCCNC(=O)c3ccc(-c4ccc(Cl)cc4)c(O)c3)CC2)ccc2c1CCCC2 | 0.226 µM
O=C1CSc2ccc(CNC3CCN(CCc4c(F)cnc5ccc(F)cc45)CC3)nc2N1 | 0.525 µM
O=C1C(c2ccccc2)=C(Nc2cccc(OC(F)(F)C(F)F)c2)c2ccccc21 | 0.18 µM
COc1ccc2nccc(N3CCC(CCNCc4cc5c(cn4)OCCO5)CC3)c2n1 | 0.224 µM
c1ccc2c(Nc3ccc(Cc4ccc(Nc5c6ccccc6nc6ccccc56)cc4)cc3)c3ccccc3nc2c1 | 0.162 µM
Cc1ccc(-c2noc(=O)n2CC(=O)Nc2ccccc2-c2ccccc2)cc1 | 0.807 µM
CC(=O)Nc1ccc(C(=O)NC2CCN(c3ccnc4cc(Cl)ccc34)CC2)cc1 | 0.357 µM
O=C(NCCCCN1CCC(c2ccc(OC(F)(F)F)cc2)CC1)c1ccc(NC(=O)c2ccc(Cl)cc2)cc1 | 0.629 µM
COc1ccc(CCNC(=O)c2cc(C)ccc2O)cc1-c1ccc(C(C)(C)C)cc1 | 0.482 µM
COc1ccc(-c2ccc(CNC(=O)c3ccc(C#N)cc3)c(F)c2)cc1CN1CCCN(C)CC1 | 1.14 µM
O=S(=O)(NCCN1CCCC1)c1ccc(-c2cccc(CNCc3ccc(F)cc3)c2)s1 | 0.764 µM
CCC(C)NS(=O)(=O)c1ccc2nc(Nc3ccc(C)cc3)n(C3CCCCC3)c2c1 (stereo unspecified) | 0.462 µM
CCn1c(-c2ccccc2)cc2nnc3ccccc3c21 | 0.769 µM
COc1cccc2c1CCN(CCN1CCC(CNC(=O)c3ccc(-c4ccc(C#N)cc4)cc3)CC1)C2 | 0.758 µM
c1ccc(N2CCN(c3cc(-c4cccnc4)nc(-c4ccncc4)n3)CC2)nc1 | 0.757 µM

Compound | XC50
C#CCNCc1ccc(-c2ccc(-c3nc4cc(C(F)(F)F)ccc4[nH]3)s2)cc1 | 0.744 µM
N#Cc1ccc(-c2ccc(C(=O)Nc3ccc4c(c3)CCN(C3CCC3)CC4)nc2)cn1 | 1.16 µM
c1ccc(C(c2ccccc2)N2CCC(NCc3ccc(OCCCN4CCCCC4)cc3)CC2)cc1 | 0.557 µM
COc1ccc(-c2nccc(NC(=N)NCc3ccccc3)n2)cc1 | 0.671 µM
CC1CN(Cc2cccc(C#N)c2)CCN1c1ccc(NC(=O)c2cccs2)cc1 (stereo unspecified) | 0.675 µM
COc1ccc2c(NN=Cc3ccccn3)ccnc2c1 | 0.374 µM
COc1ccc2c(=NN=Cc3cccc(Cl)c3)cc(C)[nH]c2c1 | 0.732 µM
Oc1ccc(CN2CCC(NCc3cccc(C(F)(F)F)c3)CC2)cc1 | 0.685 µM
O=C(NC1CCCC1)c1ccc(N2CCC(NCc3cccc(C(F)(F)F)c3)CC2)cc1 | 1.33 µM
CCC(C)Oc1ccc2nc(N)nc(N)c2c1Cl (stereo unspecified) | 0.177 µM
O=C(NCc1ccc(Cl)c(Cl)c1)c1ccc(-c2nc3cc(F)c(F)cc3[nH]2)cc1 | 1.05 µM
O=C(Nc1cccc(CN2CCCN(CC3CCCCC3)CC2)c1)c1cc2ccccc2s1 | 0.814 µM
COc1cc2ccccc2cc1CCNCCCCNCCc1cc2ccccc2cc1OC | 0.403 µM
Cc1c(C(=O)N2CCc3cc4nccc(N5CCN6CCC[C@H]6C5)c4cc32)cnn1-c1ccc(C#N)cc1 | 0.994 µM
O=C(NCc1cccs1)[C@H](Cc1ccccc1)Nc1ccnc(NCCc2ccccc2)n1 | 1.05 µM
CCOC(=O)C1=C(C)NC2=C(C(=O)CC(C)(C)C2)C1c1ccc(Br)cc1 (stereo unspecified) | 1.16 µM
CO/C(=C\C=C\c1cc2cc(Cl)c(Cl)cc2[nH]1)C(=O)NCCCCN1CCN(c2ccccc2OC)CC1 | 0.514 µM
CCCNCc1ccc(-c2ccc(CN(Cc3ccc4c(c3)OCO4)C(=O)[C@H]3CCCO3)cc2)nc1 | 0.811 µM
Cc1ccc(NC(=O)NC2CCN(c3ccnc4ccccc34)CC2)cc1 | 0.79 µM
COc1cc(N)c(Cl)cc1C(=O)NCC1CCN(c2nc(C)cc(C)n2)CC1 | 0.509 µM
O=C1CCCN1CCCNCc1cccc(-c2cccc(-c3nc4cc(C(F)(F)F)ccc4[nH]3)c2)c1 | 0.299 µM
CCNc1cc(C(=O)N[C@@H](Cc2ccccc2)[C@H](O)CNCCc2cc(OC)cc(OC)c2)cc(N2CCCCS2(=O)=O)c1 | 1.14 µM
CCCCC(=O)Nc1cc(=O)[nH]c2nc(-c3ccc(Cl)cc3)nn12 | 0.708 µM
